What is called Ki is a measure of affinity in units of concentration, obtained from inhibition or displacement. Higher therefore signals lower affinity.

Common to all, as to settings: competition of 2.5 nM 3H-PGE2 binding, CHO cell membrane fraction; more polar compounds
One test addresses T1, mouse EP3α (Mus musculus, UniProt P30557).
T1 construct: expressed in transfected cells; host or cells: CHO cells (membrane fraction)
T1 sequence (P30557 1-365): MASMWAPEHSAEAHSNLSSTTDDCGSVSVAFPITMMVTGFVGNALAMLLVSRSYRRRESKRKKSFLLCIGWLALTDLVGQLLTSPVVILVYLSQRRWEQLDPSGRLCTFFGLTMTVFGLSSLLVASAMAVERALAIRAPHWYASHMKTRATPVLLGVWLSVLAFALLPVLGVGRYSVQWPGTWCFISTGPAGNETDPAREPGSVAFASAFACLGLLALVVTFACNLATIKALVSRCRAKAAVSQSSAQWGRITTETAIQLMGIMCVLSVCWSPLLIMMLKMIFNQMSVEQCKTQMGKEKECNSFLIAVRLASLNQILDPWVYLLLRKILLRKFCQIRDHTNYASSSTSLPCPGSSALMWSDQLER
Briefly: Binding assay using expression cell of prostanoide receptor subtype (EP3α). How it is done: (§1) The preparation of membrane fraction was carried out according to the method of Sugimoto et. al. [J. Biol. Chem. 267, 6463-6466 (1992)], using expression CHO cell of the prostanoide receptor subtype (mouse EP1, EP2, EP3α, EP4).
(§2) The standard assay mixture contained membrane fraction (0.5 mg/ml), and [^3H]-PGE2 in a final volume of 200 μl was incubated for 1 hour at room temperature. The reaction was terminated by the addition of 3 ml of ice-cold buffer. The mixture was rapidly filtered through a GF/B glass filter. The radioactivity associated with the filter was measured by liquid scintillation counting.
(§3) Kd and Bmax values were determined from Scatchard plots [Ann. N.Y. Acad. Sci., 51, 660 (1949)]. Non-specific binding was calculated as the bound in the presence of an excess (2.5 μM) of unlabeled PGE2. In the experiment for competition of specific ^3H-PGE2 binding by the compounds of the present invention, 2.5 nM of ^3H-PGE2 and various concentrations of compounds of the present invention were added. The following buffer was used in all reactions.
(§4) Buffer: 10 mM potassium phosphate (pH 6.0), 1 mM EDTA, 10 mM MgCl2, 0.1 M NaCl
(§5) In the example compounds, all of values were shown the more polar compounds.
(§6) The dissociation constant (Ki) of each compound was calculated by the following equation.

The target in the next test is T2, mouse EP4 (Mus musculus, UniProt P32240).
T2 construct: expressed in transfected cells; host or cells: CHO cells (membrane fraction)
Briefly: Binding assay using expression cell of prostanoide receptor subtype (EP4). On the procedure:
as §2
(§7) Kd and Bmax values were determined from Scatchard plots [Ann. […] The following buffer was used in all reactions.
as §4, §6

A further test concerns the target T3, mouse EP1 (Mus musculus, UniProt P35375).
T3 construct: expressed in transfected cells; host or cells: CHO cells (membrane fraction)
T3 sequence (P35375 1-405): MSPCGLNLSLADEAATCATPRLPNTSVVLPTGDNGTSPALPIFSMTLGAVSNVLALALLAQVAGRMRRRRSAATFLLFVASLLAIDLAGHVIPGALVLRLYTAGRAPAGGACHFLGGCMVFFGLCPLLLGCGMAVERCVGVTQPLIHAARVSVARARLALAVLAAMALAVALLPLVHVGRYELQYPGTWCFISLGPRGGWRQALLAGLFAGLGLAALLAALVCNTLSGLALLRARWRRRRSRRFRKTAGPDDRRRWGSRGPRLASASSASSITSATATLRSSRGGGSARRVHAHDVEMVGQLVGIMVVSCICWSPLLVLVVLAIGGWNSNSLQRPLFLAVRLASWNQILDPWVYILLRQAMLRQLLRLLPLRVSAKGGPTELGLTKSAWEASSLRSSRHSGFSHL
Briefly: Binding assay using expression cell of prostanoide receptor subtype (EP1). On the procedure:
as §1, §2, §3, §4, §5, §6

A further test concerns the target T4, mouse EP2 (Mus musculus, UniProt Q62053).
T4 construct: expressed in transfected cells; host or cells: CHO cells (membrane fraction)
Briefly: Binding assay using expression cell of prostanoide receptor subtype (EP2). How it is done: as §2, §7, §4, §6

T4 sequence (Q62053 whole entry): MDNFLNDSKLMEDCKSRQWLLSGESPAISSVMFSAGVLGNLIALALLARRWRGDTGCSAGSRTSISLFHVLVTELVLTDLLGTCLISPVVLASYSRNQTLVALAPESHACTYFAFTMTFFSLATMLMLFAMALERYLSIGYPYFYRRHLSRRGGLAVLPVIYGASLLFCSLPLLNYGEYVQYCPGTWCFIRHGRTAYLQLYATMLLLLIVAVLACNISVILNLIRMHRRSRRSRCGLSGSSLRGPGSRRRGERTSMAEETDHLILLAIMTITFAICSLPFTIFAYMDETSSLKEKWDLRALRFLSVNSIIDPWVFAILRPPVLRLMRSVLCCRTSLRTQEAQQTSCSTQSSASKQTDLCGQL
T2 sequence (P32240 whole entry): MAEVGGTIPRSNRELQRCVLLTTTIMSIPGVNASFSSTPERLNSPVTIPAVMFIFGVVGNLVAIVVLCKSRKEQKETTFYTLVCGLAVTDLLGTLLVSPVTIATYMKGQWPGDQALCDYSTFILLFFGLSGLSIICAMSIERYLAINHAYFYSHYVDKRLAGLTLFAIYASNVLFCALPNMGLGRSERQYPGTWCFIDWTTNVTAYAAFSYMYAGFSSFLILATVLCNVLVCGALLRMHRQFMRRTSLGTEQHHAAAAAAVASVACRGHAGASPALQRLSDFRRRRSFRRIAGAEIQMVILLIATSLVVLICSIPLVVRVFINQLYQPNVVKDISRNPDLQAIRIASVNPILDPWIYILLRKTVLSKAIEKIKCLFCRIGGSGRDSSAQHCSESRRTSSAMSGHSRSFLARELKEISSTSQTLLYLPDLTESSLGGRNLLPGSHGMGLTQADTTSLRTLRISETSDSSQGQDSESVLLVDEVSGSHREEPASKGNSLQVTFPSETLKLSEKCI

For `C=CCCC1(C(O)C/C=C/[C@H]2[C@H](O)CC(=O)[C@@H]2C/C=C\CCCC(=O)O)CCC1` (stereo partly drawn) [Example 6(1), (5Z, 11α, 13E)-17,17-propano-20,20-methylene-11,16-dihydroxy-9-oxoprosta-5,13-dienoic acid], the Ki at mouse EP3α was more than 10 µM; on mouse EP4 it was more than 10 µM; at mouse EP1 it was more than 10 µM; at mouse EP2, 0.036 µM.
Turning to `C=CCC1(C(O)C/C=C/[C@@H]2[C@@H](C/C=C\CCCC(=O)OC)[C@H](Cl)C[C@H]2O)CCC1` (stereo partly drawn) [Example 16(1), (5Z, 9β, 11α, 13E)-17, 17-propano-11, 16-dihydroxy-9-chloroprosta-5, 13, 19-trienoic acid•methylester], the Ki at mouse EP3α is more than 10 µM; on mouse EP4, more than 10 µM; on mouse EP1 it was more than 10 µM; on mouse EP2 it was 0.096 µM.
Regarding `CCC1(C(O)C/C=C/[C@H]2[C@H](O)CC(=O)[C@@H]2C/C=C\CCCC(=O)O)CCC1` (stereo partly drawn) [Example 4(10), (5Z, 11α, 13E)-11,16-dihydroxy-9-oxo-17,17-propano-20-norprosta-5,13-dienoic acid], the Ki was more than 10 µM on mouse EP3α, more than 10 µM on mouse EP4, more than 10 µM at mouse EP1 and 0.03 µM at mouse EP2.
For the compound `CCCC1(C(O)C/C=C/[C@H]2[C@H](OC)CC(=O)[C@@H]2C/C=C\CCCC(=O)O)CCC1` (stereo partly drawn) [compound 10], the Ki was more than 10 µM on mouse EP3α, more than 10 µM on mouse EP4, more than 10 µM at mouse EP1 and 0.034 µM on mouse EP2.
Take `C=C1C[C@@H](O)[C@H](/C=C/CC(O)C2(CCC)CCC2)[C@H]1C/C=C\CCCC(=O)O` (stereo partly drawn) [compound 12]: the Ki is more than 10 µM on mouse EP3α, more than 10 µM on mouse EP4, more than 10 µM on mouse EP1 and 0.37 µM at mouse EP2.
As for `O=C(O)CCC/C=C\C[C@@H]1[C@@H](/C=C/CC(O)C2(CC3CC3)CCC2)[C@H](O)C[C@H]1Cl` (stereo partly drawn) [Example 17(2), (5Z, 9β, 11α, 13E)-17, 17-propano-19, 20-methano-11, 16-dihydroxy-9-chloroprosta-5, 13-dienoic acid], the Ki at mouse EP3α is 2.7 µM; on mouse EP4, 0.4 µM; at mouse EP1, 1.1 µM; at mouse EP2 it was 0.0009 µM.
Turning to `CCCC1(C(O)C/C=C/[C@H]2[C@H](O)CC(=O)[C@@H]2C/C=C\CCCC(=O)O)CCC1` (stereo partly drawn) [compound 4], the inhibition constant Ki at mouse EP3α is more than 10 µM; on mouse EP4, more than 10 µM; at mouse EP1, more than 10 µM; on mouse EP2 it was 0.092 µM.
As to `C=CC1(C(O)C/C=C/[C@H]2[C@H](O)CC(=O)[C@@H]2C/C=C\CCCC(=O)O)CCC1` (stereo partly drawn) [Example 6(5), (5Z, 11α, 13E)-17,17-propano-11,16-dihydroxy-9-oxo-20-norprosta-5,13,18-trienoic acid], the Ki was more than 10 µM at mouse EP3α, more than 10 µM at mouse EP4, more than 10 µM at mouse EP1 and 0.076 µM at mouse EP2.
On to `C=CCC1(C(O)C/C=C/[C@H]2[C@H](O)CC(=O)[C@@H]2C/C=C\CCCC(=O)O)CCC1` (stereo partly drawn) [Example 4(5), (5Z, 11α, 13E)-11,16-dihydroxy-9-oxo-17,17-propanoprosta-5, 13-19-trienoic acid], for which the Ki at mouse EP3α was more than 10 µM; at mouse EP4, more than 10 µM; at mouse EP1 it was more than 10 µM; on mouse EP2, 0.032 µM.

Values taken from patent publication US20030186939A1, “Omega-cycloalkyl-prostaglandin E2 derivatives” (priority 1997, published 2003).
